Test results published in patent US20190177284A1, “TETRAZOLYL-CONTAINING CYCLOPROPANECARBOXAMIDES” (Bayer Pharma Aktiengesellschaft, priority 2017, published 2019).

target: T1, human Bradykinin B1 receptor (Homo sapiens, UniProt P46663); assay: Calcium flux Assay (FLIPR) with cells expressing human Bradykinin B1 receptor (hB1); format: cell-based; conditions: absence of 0.1% BSA in assay buffer; CHO-K1 cell line expressing human B1 receptor; agonist Lys-(Des-Arg)-Bradykinin; read-out: hB1 free IC50
T1 construct: host or cells: CHO-K1
T1 sequence (P46663 1-353): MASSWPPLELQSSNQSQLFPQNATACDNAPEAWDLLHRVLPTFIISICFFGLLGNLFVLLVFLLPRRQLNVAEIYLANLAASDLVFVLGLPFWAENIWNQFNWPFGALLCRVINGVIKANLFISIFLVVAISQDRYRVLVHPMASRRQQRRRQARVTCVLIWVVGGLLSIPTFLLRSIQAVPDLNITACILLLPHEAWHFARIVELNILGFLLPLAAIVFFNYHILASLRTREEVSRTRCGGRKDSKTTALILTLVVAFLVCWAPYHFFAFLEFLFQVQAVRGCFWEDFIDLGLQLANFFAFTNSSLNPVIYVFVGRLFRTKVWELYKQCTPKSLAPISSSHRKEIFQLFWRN
Protocol: The potency to inhibit the Bradykinin B1 receptor was determined for the compound examples of this invention in a cell-based fluorescent calcium-mobilisation assay. The assay measures the ability of compound examples to inhibit Bradykinin B1 receptor agonist-induced increase of intracellular free Ca^2+ in the cell line expressing Bradykinin B1 receptor. Specifically, calcium indicator-loaded cells are pre-incubated in the absence or presence of different concentrations of compound examples followed by the stimulation with a selective Bradykinin B1 receptor agonist peptide. The change of the intracellular Ca^2+ concentration is monitored with a fluorescent plate reader FLIPR^TETRA®
Calcium flux Assays (FLIPR) with cells expressing human Bradykinin B1 receptor (hB1) Calcium flux Assay (FLIPR) with recombinant cells for Bradykinin B1 receptor antagonist, either in the presence (hB1 IC50) or absence (hB1 free IC50) of 0.1% Bovine Serum Albumin (BSA) in assay buffer.
CHO—K1 cell line expressing human B1 receptor was purchased from Euroscreen (Gosselies, Belgium, with reference name hB1-D1). The cells were grown in Nutrient Mixture Ham's F12 (Sigma) containing 10% Foetal bovine serum (Sigma) and 400 μg/mL G418 (Sigma), 5 μg/mL puromycin (Sigma).
For the calcium flux assay, 80% confluent cells were detached from the culture vessels with Versene (Gibco), and seeded into 384-well plates (Cell binding Surface; Corning, N.Y.; #3683) at a density of 15,000 cells per well. Cells were seeded in a volume of 50 μL in medium without antibiotics and incubated overnight in a humidified atmosphere with 5% CO2 at 37° C. […] The calcium indicator loaded cells were incubated at 37° C. for 2 hrs. Extracellular dye was then removed and each well was filled with 45 μL of assay buffer. Cell plates were kept in dark until used. Example compounds were assayed at 8 concentrations in triplicate. Serial 10-fold dilutions in 100% DMSO were made at a 100-times higher concentration than the final concentration, and then diluted 1:10 in assay buffer. 5 μL of each diluted compound was added to the well of cell plates (yielding final concentration with 1% DMSO), and incubated for 30 min at 28° C. before the addition of B1 receptor agonist on the FLIPR instrument.
Agonist plates contained the agonist Lys-(Des-Arg)-Bradykinin (Bachem, Brackley) at 3.5×EC90 in assay buffer with 1% DMSO. The addition of agonist 20 μl per well to the assay plate was carried out on the FLIPR instrument while continuously monitoring Ca^2+-dependent fluorescence at 538 nm. A peptide antagonist Lys-(Des-Arg-Leu)-Bradykinin (Bachem, Brackley) at 20 μM was used to determine the full inhibition as control.
Peak fluorescence was used to determine the response to agonist obtained at each concentration of example compound by the following equation:
% Response=100*(RFU(example compound)−RFU(control))/(RFU(DMSO)−RFU(control)) • RFU means relative fluorescence units. • Control means full inhibition by the peptide antagonist Lys-(Des-Arg-Leu)-Bradykinin at 20
The response values were plotted against the logarithm of the example compound concentrations. The example compounds were tested in triplicates per plate and mean values were plotted in Excel XLfit to determine IC50 values, percentage of maximal inhibition and the Hill slopes.
IC50 values of example compounds in Calcium flux Assay (FLIPR) as shown in table 1 were determined according to the protocol described above in the absence of 0.1% BSA in assay buffer.

SMILES	IC50 [nM]
O=C(O[C@@H]1CCOC1)c1ccc(NC(=O)C2(c3ccc(C(F)(F)F)cc3F)CC2)cc1-c1nnn[nH]1 [Example 20, (3R)-Tetrahydrofuran-3-yl 4-[({1-[2-fluoro-4-(trifluoromethyl)phenyl]cyclopropyl}carbonyl)amino]-2-(1H-tetrazol-5-yl)benzoate]	14
O=C(OC1CCOCC1)c1ccc(NC(=O)C2(c3ccc(C(F)(F)F)cc3F)CC2)cc1-c1nnn[nH]1 [Example 21, Tetrahydro-2H-pyran-4-yl 4-[({1-[2-fluoro-4-(trifluoromethyl)phenyl]cyclopropyl}carbonyl)amino]-2-(1H-tetrazol-5-yl)benzoate]	22
O=C(OCC1CCOCC1)c1ccc(NC(=O)C2(c3ccc(C(F)(F)F)cc3F)CC2)cc1-c1nnn[nH]1 [Example 22, Tetrahydro-2H-pyran-4-ylmethyl 4-[({1-[2-fluoro-4-(trifluoromethyl)phenyl]cyclopropyl}carbonyl)amino]-2-(1H-tetrazol-5-yl)benzoate]	18
CN1CCC(OC(=O)c2ccc(NC(=O)C3(c4ccc(C(F)(F)F)cc4F)CC3)cc2-c2nnn[nH]2)CC1 [Example 23, 1-Methylpiperidin-4-yl 4-[({1-[2-fluoro-4-(trifluoromethyl)phenyl]cyclopropyl}carbonyl)amino]-2-(1H-tetrazol-5-yl)benzoate]	319
CC[C@@H](C)OC(=O)c1ccc(NC(=O)C2(c3ccc(C(F)(F)F)cc3F)CC2)cc1-c1nnn[nH]1 [Example 24, (2R)-Butan-2-yl 4-[({1-[2-fluoro-4-(trifluoromethyl)phenyl]cycloproyl}carbonyl)amino]-2-(1H-tetrazol-5-yl)benzoate]	2
CC[C@H](C)OC(=O)c1ccc(NC(=O)C2(c3ccc(C(F)(F)F)cc3F)CC2)cc1-c1nnn[nH]1 [Example 25, (2S)-Butan-2-yl 4-[({1-[2-fluoro-4-(trifluoromethyl)phenyl]cyclopropyl}carbonyl)amino]-2-(1H-tetrazol-5-yl)benzoate]	3
CC[C@@H](C)OC(=O)c1ccc(NC(=O)C2(c3ccc(OC(F)(F)F)cc3F)CC2)cc1-c1nnn[nH]1 [Example 26, (2R)-Butan-2-yl 4-[({1-[2-fluoro-4-(trifluoromethoxy)phenyl]cyclopropyl}carbonyl)amino]-2-(1H-tetrazol-5-yl)benzoate]	3
CC[C@H](C)OC(=O)c1ccc(NC(=O)C2(c3ccc(OC(F)(F)F)cc3F)CC2)cc1-c1nnn[nH]1 [Example 27, (2S)-Butan-2-yl 4-[({1-[2-fluoro-4-(trifluoromethoxy)phenyl]cyclopropyl}carbonyl)amino]-2-(1H-tetrazol-5-yl)benzoate]	2
CC(C)COC(=O)c1ccc(NC(=O)C2(c3ccc(C(F)(F)F)cc3F)CC2)cc1-c1nnn[nH]1 [Example 28, Isobutyl 4-[({1-[2-fluoro-4-(trifluoromethyl)phenyl]cyclopropyl}carbonyl)amino]-2-(1H-tetrazol-5-yl)benzoate]	3
CC(C)(C)COC(=O)c1ccc(NC(=O)C2(c3ccc(C(F)(F)F)cc3F)CC2)cc1-c1nnn[nH]1 [Example 29, 2,2-Dimethylpropyl 4-[({1-[2-fluoro-4-(trifluoromethyl)phenyl]cyclopropyl}carbonyl)amino]-2-(1H-tetrazol-5-yl)benzoate]	6
O=C(OC1CCC1)c1ccc(NC(=O)C2(c3ccc(C(F)(F)F)cc3F)CC2)cc1-c1nnn[nH]1 [Example 30, Cyclobutyl 4-[({1-[2-fluoro-4-(trifluoromethyl)phenyl]cyclopropyl}carbonyl)amino]-2-(1H-tetrazol-5-yl)benzoate]	2

Results, then the compound that gave them:

IC50 [nM]	SMILES
633	O=C(c1ccc(NC(=O)C2(c3cccc(Cl)c3)CC2)cc1-c1nnn[nH]1)N1CCCCC1 [Example 33, 1-(3-Chlorophenyl)-N-[4-(piperidin-1-ylcarbonyl)-3-(1H-tetrazol-5-yl)phenyl]cyclopropanecarboxamide]
70	O=C(c1ccc(NC(=O)C2(c3ccc(C(F)(F)F)cc3F)CC2)cc1-c1nnn[nH]1)N1CCCCC1 [Example 34, 1-[2-Fluoro-4-(trifluoromethyl)phenyl]-N-[4-(piperidin-1-ylcarbonyl)-3-(1H-tetrazol-5-yl)phenyl]cyclopropanecarboxamide]
523	COC1CCN(C(=O)c2ccc(NC(=O)C3(c4ccc(C(F)(F)F)cc4F)CC3)cc2-c2nnn[nH]2)CC1 [Example 36, 1-[2-Fluoro-4-(trifluoromethyl)phenyl]-N-{4-[(4-methoxypiperidin-1-yl)carbonyl]-3-(1H-tetrazol-5-yl)phenyl}cyclopropanecarboxamide]
121	CC[C@@H](C)NC(=O)c1ccc(NC(=O)C2(c3ccc(C(F)(F)F)cc3F)CC2)cc1-c1nnn[nH]1 [Example 37, N-[(2R)-butan-2-yl]-4-[({1-[2-fluoro-4-(trifluoromethyl)phenyl]cyclopropyl}carbonyl)amino]-2-(1H-tetrazol-5-yl)benzamide]
80	CC[C@H](C)NC(=O)c1ccc(NC(=O)C2(c3ccc(C(F)(F)F)cc3F)CC2)cc1-c1nnn[nH]1 [Example 38, N-[(2S)-butan-2-yl]-4-[({1-[2-fluoro-4-(trifluoromethyl)phenyl]cyclopropyl}carbonyl)amino]-2-(1H-tetrazol-5-y)benzamide]
34	O=C(NC1CCCC1)c1ccc(NC(=O)C2(c3ccc(C(F)(F)F)cc3F)CC2)cc1-c1nnn[nH]1 [Example 39, N-cyclopentyl-4-[({1-[2-fluoro-4-(trifluoromethyl)phenyl]cyclopropyl}carbonyl)amino]-2-(1H-tetrazol-5-yl)benzamide]
1240	CN(C(=O)c1ccc(NC(=O)C2(c3cccc(Cl)c3)CC2)cc1-c1nnn[nH]1)C1CCCC1 [Example 40, 4-({[1-(3-Chlorophenyl)cyclopropyl]carbonyl}amino)-N-cylcopentyl-N-methyl-2-(1H-tetrazol-5-yl)benzamide]
205	CN(C(=O)c1ccc(NC(=O)C2(c3ccc(C(F)(F)F)cc3F)CC2)cc1-c1nnn[nH]1)C1CCCC1 [Example 41, N-cyclopentyl-4-[({1-[2-fluoro-4-(trifluoromethyl)phenyl]cyclopropyl}carbonyl)amino]-N-methyl-2-(1H-tetrazol-5-yl)benzamide]
34	O=C(NC1CCCCC1)c1ccc(NC(=O)C2(c3ccc(C(F)(F)F)cc3F)CC2)cc1-c1nnn[nH]1 [Example 42, N-cyclohexyl-4-[({1-[2-fluoro-4-(trifluoromethyl)phenyl]cyclopropyl}carbonyl)amino]-2-(1H-tetrazol-5-yl)benzamide]
50	CN(C(=O)c1ccc(NC(=O)C2(c3ccc(C(F)(F)F)cc3F)CC2)cc1-c1nnn[nH]1)C1CCCCC1 [Example 43, N-cyclohexyl-4-[({1-[2-fluoro-4-(trifluoromethyl)phenyl]cyclopropyl}carbonyl)amino]-N-methyl-2-(1H-tetrazol-5-yl)benzamide]
13	O=C(NCC1CCCCC1)c1ccc(NC(=O)C2(c3ccc(C(F)(F)F)cc3F)CC2)cc1-c1nnn[nH]1 [Example 44, N-(cyclohexylmethyl)-4-[({1-[2-fluoro-4-(trifluoromethyl)phenyl]cyclopropyl}carbonyl)amino]-2-(1H-tetrazol-5-yl)benzamide]
